According to patent US20260167632A1, “NICOTINAMIDE DERIVATIVES FOR USE IN TREATING DISORDERS ASSOCIATED WITH KCNK13 ACTIVITY” (Cerevance, Inc., priority 2022, published 2026):

These compounds were tested against T1, human KCNK13 (Homo sapiens, UniProt Q9HB14) (assay: KCNK13 antagonist activity, thallium flux FLIPR assay in HEK 293 cells stably expressing human KCNK13). Settings: HEK 293 cells stably expressing human KCNK13, Tl+ sensitive dye, compound 15 min before thallium sulfate, ten point curves; read-out: hKCNK13 IC50.
T1 construct: expressed in transfected cells
T1 sequence (Q9HB14 1-408): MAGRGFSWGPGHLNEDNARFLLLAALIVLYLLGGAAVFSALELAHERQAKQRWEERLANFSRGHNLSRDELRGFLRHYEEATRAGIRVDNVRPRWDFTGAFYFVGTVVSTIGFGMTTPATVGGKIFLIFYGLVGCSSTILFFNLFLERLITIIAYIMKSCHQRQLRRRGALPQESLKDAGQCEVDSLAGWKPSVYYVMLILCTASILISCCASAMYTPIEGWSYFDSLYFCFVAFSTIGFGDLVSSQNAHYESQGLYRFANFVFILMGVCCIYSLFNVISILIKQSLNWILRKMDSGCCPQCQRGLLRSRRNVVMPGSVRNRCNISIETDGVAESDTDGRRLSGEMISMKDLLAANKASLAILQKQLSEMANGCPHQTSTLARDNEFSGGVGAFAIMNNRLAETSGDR
Assay type: cell-based
Method in brief: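 HEK 293 cells stably expressing human KCNK13, loaded with Tl+-sensitive dye 1 h at room temperature, then exposed to compound for 15 min before thallium sulfate stimulus. Tl+ influx read by FLIPR fluorescence; IC50 from ten-point half-log curves starting at 100 µM, each point averaging two wells.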

SMILES | IC50 [nM]
COc1ncc(F)cc1C(=O)N(C)C1CCc2ccccc21 (single isomer, unassigned) [Example 16, N-(2,3-dihydro-1H-inden-1-yl)-5-fluoro-2-methoxy-N-methylnicotinamide] | ≤ 500
CN(Cc1cccc(OC(F)F)c1)C(=O)c1cc(Cl)cnc1OC(F)F [Example 98, 5-chloro-2-(difluoromethoxy)-N-(3-(difluoromethoxy)benzyl)-N-methylnicotinamide] | ≤ 200
COc1ncc(F)cc1C(=O)N(C)Cc1cccc(F)c1 [Example 50, 5-fluoro-N-(3-fluorobenzyl)-2-methoxy-N-methylnicotinamide] | ≤ 200
CN(Cc1cccc(F)c1)C(=O)c1cc(C(F)(F)F)cnc1OC(F)F [Example 96, 2-(difluoromethoxy)-N-(3-fluorobenzyl)-N-methyl-5-(trifluoromethyl)nicotinamide] | ≤ 500
CC(c1cccc(F)c1)N(C)C(=O)c1cc(F)cnc1OC(F)F (single isomer, unassigned) [Example 88, 2-(difluoromethoxy)-5-fluoro-N-(1-(3-fluorophenyl)ethyl)-N-methylnicotinamide] | ≤ 100
CN(Cc1cccc(F)c1)S(=O)(=O)c1cc(Cl)cnc1OC(F)F [Example 113, 5-chloro-2-(difluoromethoxy)-N-(3-fluorobenzyl)-N-methylpyridine-3-sulfonamide] | ≤ 500
CC(c1ccccc1F)N(C)C(=O)c1cc(F)cnc1OC(F)F (single isomer, unassigned) [Example 71, 2-(difluoromethoxy)-5-fluoro-N-(1-(2-fluorophenyl)ethyl)-N-methylnicotinamide] | ≤ 100
CN(Cc1ccc(F)cc1F)C(=O)c1cc(F)cnc1OC(F)F [Example 94, N-(2,4-difluorobenzyl)-2-(difluoromethoxy)-5-fluoro-N-methylnicotinamide] | ≤ 100
CN(Cc1cccc(F)c1F)S(=O)(=O)c1cc(F)cnc1OC(F)F [Example 107, N-(2,3-difluorobenzyl)-2-(difluoromethoxy)-5-fluoro-N-methylpyridine-3-sulfonamide] | ≤ 100
CCN(Cc1cccc(F)c1)S(=O)(=O)c1cc(F)cnc1OC(F)F [Example 109, 2-(difluoromethoxy)-N-ethyl-5-fluoro-N-(3-fluorobenzyl)pyridine-3-sulfonamide] | ≤ 1000
COc1ncc(F)cc1C(=O)N(C)C(C)c1ccccc1F (single isomer, unassigned) [Example 6, 5-fluoro-N-(1-(2-fluorophenyl)ethyl)-2-methoxy-N-methylnicotinamide] | ≤ 500
CCOc1ncc(Cl)cc1C(=O)N(C)C1CCc2ccccc21 (single isomer, unassigned) [Example 13, 5-chloro-N-(2,3-dihydro-1H-inden-1-yl)-2-ethoxy-N-methylnicotinamide] | ≤ 500
COc1ncc(F)cc1C(=O)N(C)C1CCOc2ccccc21 (single isomer, unassigned) [Example 15, N-(chroman-4-yl)-5-fluoro-2-methoxy-N-methylnicotinamide] | ≤ 500
COc1ncc(F)cc1C(=O)N(C)C1COc2cc(F)ccc21 (stereo not shown) [Example 42, 5-fluoro-N-(6-fluoro-2,3-dihydrobenzofuran-3-yl)-2-methoxy-N-methylnicotinamide] | ≤ 1000
COc1ncc(Cl)cc1C(=O)N(C)Cc1cccc(F)c1 [Example 24, 5-chloro-N-(3-fluorobenzyl)-2-methoxy-N-methylnicotinamide] | ≤ 50
CCOc1ncc(Cl)cc1C(=O)N(C)C1CCc2ccccc21 (single isomer, unassigned) [Example 12, 5-chloro-N-(2,3-dihydro-1H-inden-1-yl)-2-ethoxy-N-methylnicotinamide] | ≤ 1000
Cc1cccc(CN(C)C(=O)c2cc(Cl)cnc2OC(F)F)c1 [Example 80, 5-chloro-2-(difluoromethoxy)-N-methyl-N-(3-methylbenzyl)nicotinamide] | ≤ 100
COc1ncc(Cl)cc1C(=O)N(C)Cc1cc(F)cc(F)c1 [Example 41, 5-chloro-N-(3,5-difluorobenzyl)-2-methoxy-N-methylnicotinamide] | ≤ 200
COc1ncc(Cl)cc1C(=O)N(C)Cc1c(Cl)cccc1Cl [Example 118, 5-chloro-N-(2,6-dichlorobenzyl)-2-methoxy-N-methylnicotinamide] | ≤ 200
COc1nccc(C)c1C(=O)N(C)Cc1ccc(F)cc1F [Example 73, N-(2,4-difluorobenzyl)-2-methoxy-N,4-dimethylnicotinamide] | ≤ 500
CN(Cc1cccc(F)c1)C(=O)c1cc(Cl)cnc1OC(F)F [Example 101, 5-chloro-2-(difluoromethoxy)-N-(3-fluorobenzyl)-N-methylnicotinamide] | ≤ 100
CN(Cc1cccc(OC(F)(F)F)c1)C(=O)c1cc(Cl)cnc1OC(F)F [Example 99, 5-chloro-2-(difluoromethoxy)-N-methyl-N-(3-(trifluoromethoxy)benzyl)nicotinamide] | ≤ 1000
COc1ncc(Cl)cc1C(=O)N(C)C1CCOc2ccccc21 (single isomer, unassigned) [Example 18, 5-chloro-N-(chroman-4-yl)-2-methoxy-N-methylnicotinamide] | ≤ 500
COc1ncc(C)cc1S(=O)(=O)N1CCc2ccccc2C1 [Example 51, 2-((2-methoxy-5-methylpyridin-3-yl)sulfonyl)-1,2,3,4-tetrahydroisoquinoline] | ≤ 200
COc1ncc(F)cc1C(=O)N(C)C(C)c1ccc(F)cc1F (single isomer, unassigned) [Example 68, N-(1-(2,4-difluorophenyl)ethyl)-5-fluoro-2-methoxy-N-methylnicotinamide] | ≤ 5000
COc1ncc(Cl)cc1C(=O)N(C)C1CCOc2ccccc21 (single isomer, unassigned) [Example 19, 5-chloro-N-(chroman-4-yl)-2-methoxy-N-methylnicotinamide] | ≤ 500
COc1ncc(F)cc1C(=O)N(C)C(C)c1ccc(F)cc1C#N (single isomer, unassigned) [Example 65, N-(1-(2-cyano-4-fluorophenyl)ethyl)-5-fluoro-2-methoxy-N-methylnicotinamide] | ≤ 1000
COc1ncc(F)cc1C(=O)N(C)Cc1ccc(F)cc1F [Example 39, N-(2,4-difluorobenzyl)-5-fluoro-2-methoxy-N-methylnicotinamide] | ≤ 200

These compounds were tested on Mouse primary microglia IL-1β (assay: Inflammasome assay in primary mouse postnatal microglia using LPS/0 mM extracellular K+ (IL-1β release)). Settings: 100 ng/mL LPS 3.5 h, compound 30 min, K+ free buffer 2 h, IL-1β levels by MesoScale.
Assay type: cell-based
Procedure: 3. Inflammasome Assay in Primary Mouse Postnatal Microglia Using LPS/0 mM Extracellular K^+
Newly shaken mouse microglia cells were added to a 96-well plate and left to adhere overnight. After this time, 100 ng/mL LPS was added to each well and incubated at 37° C. for 3.5 hours, at which point compound addition was undertaken and plates incubated at 37° C. for an additional 30 minutes. After this time, the medium in each well was removed and replaced with K^+ free buffer and the plates then incubated for an additional 2 hours at 37° C. Measurement of IL-1β levels in the sample wells was undertaken using MesoScale Discovery™ MESO QuickPlex SQ 120 and IL-1β antibodies from mouse IL-1β DuoSet ELISA kit (R&D System, DY401).

SMILES | IC50 [nM]
COc1ncc(F)cc1C(=O)N(C)C1CCc2ccccc21 (single isomer, unassigned) [Example 16, N-(2,3-dihydro-1H-inden-1-yl)-5-fluoro-2-methoxy-N-methylnicotinamide] | ≤ 600
COc1ncc(Cl)cc1C(=O)N(C)Cc1cccc(F)c1 [Example 24, 5-chloro-N-(3-fluorobenzyl)-2-methoxy-N-methylnicotinamide] | ≤ 150
COc1ncc(F)cc1C(=O)N(C)Cc1ccc(F)cc1F [Example 39, N-(2,4-difluorobenzyl)-5-fluoro-2-methoxy-N-methylnicotinamide] | ≤ 300
